Results taken from patent publication US5210215A, “Tryptophane and 3-indolepyruvic acid, methods of production therefor” (Polifarma S.p.A., priority 1989, dated 1993).
pIC50: −log10 of the molar value. Read-outs that look alike come from different tables or passages of the source.

Key:
[1] = test system: formation of free radicals from biological membrane undergoing oxidative stress (MDA formation); test: Formation of malonodialdehyde (MDA) test: antagonism of free radical formation from biological membrane undergoing oxidative stress; format: biochemical; settings: in vitro; IC50 = dose of compound necessary to reduce by 50% the harmful effect
Procedure: For the first experiment was chosen the test on formation of malonodialdehyde (MDA). Briefly, the capacity was tested of the above compounds to antagonize the formation of free radicals from biological membrane undergoing oxidative stress.
(§1) of compound necessary to reduce by 50% the harmful effect to be added to the in vitro tests or to be administered to mice.

[2] = test system: convulsions and death induced by NMDA (N-methyl-D-aspartic acid); test: Antagonism of convulsions and death induced by NMDA (N-methyl-D-aspartic acid); format: in vivo; settings: Mus musculus, ip, mice, IC50 = dose necessary to reduce by 50% the harmful effect
Procedure: For the second experiment, on the contrary, the capacity of the compounds to antagonize the convulsions and death induced by NMDA (N-methyl-D-aspartic acid), an excitatory amino acid, was evaluated.
as §1

[3] = convulsions, read-out: CONVULSIONS from MDA IC50
[4] = death, read-out: DEATH from MDA IC50

Work on `O=C(O)C(=O)Cc1c[nH]c2ccc(Cl)cc12` [5-Cl-IPA, 5-chloro-indole-3-yl-pyruvic] yielded a pIC50 [1] of 3.30, an ED50 [2, 3] of 600 mg/kg and an ED50 [2, 4] of 200 mg/kg.

With `COc1ccc2c(CC(=O)C(=O)O)c[nH]c2c1` [6-OMe-IPA] the pIC50 [1] was 4.00, the ED50 [2, 3] was 200 mg/kg and the ED50 [2, 4] was 100 mg/kg.

For `O=C(O)C(=O)Cc1c[nH]c2cc(Cl)ccc12` [6-Cl-IPA, 6-chloro-indole-3-yl-pyruvic acid], the pIC50 [1] was 4.00, the ED50 [2, 3] was 20 mg/kg and the ED50 [2, 4] was 10 mg/kg.

`O=C(O)C(=O)Cc1c[nH]c2cccc(Cl)c12` [4-Cl-IPA, 4-chloro-indole-3-yl-pyruvic] gave a pIC50 [1] of 3.00, an ED50 [2, 3] of 1000 mg/kg and an ED50 [2, 4] of 200 mg/kg.

Work on `Cc1ccc2c(CC(=O)C(=O)O)c[nH]c2c1` [6-Me-IPA, 6-methyl-indole-3-yl-pyruvic] yielded a pIC50 [1] of 4.22, an ED50 [2, 3] of 200 mg/kg and an ED50 [2, 4] of 100 mg/kg.

Compound `O=C(O)C(=O)Cc1c[nH]c2cc(O)ccc12` [6-OH-IPA] has a pIC50 [1] of 3.30, an ED50 [2, 3] of 800 mg/kg and an ED50 [2, 4] of 200 mg/kg.

In the case of `O=C(O)C(=O)Cc1c[nH]c2c(Cl)cccc12` [7-Cl-IPA], the pIC50 [1] was 3.40, the ED50 [2, 3] was 1000 mg/kg and the ED50 [2, 4] was 200 mg/kg.

`NC(Cc1c[nH]c2cc(Cl)ccc12)C(=O)O` (racemic) [6-Cl-TRP, 6-chloro-DL-tryptophan] showed a pIC50 [1] of 3.00, an ED50 [2, 3] of 1000 mg/kg and an ED50 [2, 4] of 200 mg/kg.

Work on `O=C(O)C(=O)Cc1c[nH]c2ccccc12` [IPA, 3-indolepyruvic acid] yielded a pIC50 [1] of 5.00, an ED50 [2, 3] of 200 mg/kg and an ED50 [2, 4] of 50 mg/kg.

For `O=C(O)C(=O)Cc1c[nH]c2cc(Br)ccc12` [6-Br-IPA], the pIC50 [1] was 4.30, the ED50 [2, 3] was 100 mg/kg and the ED50 [2, 4] was 20 mg/kg.
